Laboratory results as given in US10544147B2, “Purine inhibitors of human phosphatidylinositol 3-kinase delta” (MERCK SHARP & DOHME CORP., priority 2016, dated 2020).

Assays:
PI3Kdelta = PI3Kdelta (Homo sapiens (Human), UniProt O00329); test: HTRF PI3K biochemical assay, delta isoform; conditions: 0.3 nM enzyme, 100 uM ATP, 50 uM PIP2; form screened (neutral or TFA salt)
PI3Kalpha = PI3Kalpha (Homo sapiens (Human), UniProt P42336); test: HTRF PI3K biochemical assay, alpha isoform (selectivity versus delta); conditions: ratio PI3K-alpha IC50 value/PI3K-delta IC50 value
Chain of PI3Kalpha (P42336 whole entry, canonical isoform): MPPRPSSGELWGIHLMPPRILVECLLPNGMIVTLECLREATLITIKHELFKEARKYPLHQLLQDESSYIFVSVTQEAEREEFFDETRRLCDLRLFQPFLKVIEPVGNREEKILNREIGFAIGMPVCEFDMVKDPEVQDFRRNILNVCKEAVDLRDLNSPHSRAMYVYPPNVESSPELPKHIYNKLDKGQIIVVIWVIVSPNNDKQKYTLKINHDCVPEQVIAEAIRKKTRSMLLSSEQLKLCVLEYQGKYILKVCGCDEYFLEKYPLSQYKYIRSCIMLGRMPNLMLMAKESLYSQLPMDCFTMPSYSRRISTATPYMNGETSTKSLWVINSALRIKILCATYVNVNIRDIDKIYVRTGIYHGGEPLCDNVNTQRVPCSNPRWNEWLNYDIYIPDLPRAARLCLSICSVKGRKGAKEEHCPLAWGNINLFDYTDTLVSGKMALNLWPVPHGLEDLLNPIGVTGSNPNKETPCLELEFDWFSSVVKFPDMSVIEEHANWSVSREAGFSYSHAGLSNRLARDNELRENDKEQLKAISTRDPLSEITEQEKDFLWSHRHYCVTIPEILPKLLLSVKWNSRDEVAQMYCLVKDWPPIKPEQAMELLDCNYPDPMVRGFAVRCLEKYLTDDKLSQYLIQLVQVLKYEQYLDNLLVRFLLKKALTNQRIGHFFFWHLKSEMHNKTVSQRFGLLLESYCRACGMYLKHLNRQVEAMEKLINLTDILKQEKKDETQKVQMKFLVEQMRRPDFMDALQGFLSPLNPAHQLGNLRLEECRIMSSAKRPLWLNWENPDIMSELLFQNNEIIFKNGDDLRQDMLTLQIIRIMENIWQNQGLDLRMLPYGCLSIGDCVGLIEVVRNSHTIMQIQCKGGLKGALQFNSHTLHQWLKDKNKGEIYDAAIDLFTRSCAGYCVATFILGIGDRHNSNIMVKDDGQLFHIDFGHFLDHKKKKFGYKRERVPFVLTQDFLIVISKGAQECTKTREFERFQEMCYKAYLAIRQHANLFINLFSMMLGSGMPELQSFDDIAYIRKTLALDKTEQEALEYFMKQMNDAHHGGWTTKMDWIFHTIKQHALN
Chain of PI3Kalpha (P27986 whole entry partner, canonical isoform): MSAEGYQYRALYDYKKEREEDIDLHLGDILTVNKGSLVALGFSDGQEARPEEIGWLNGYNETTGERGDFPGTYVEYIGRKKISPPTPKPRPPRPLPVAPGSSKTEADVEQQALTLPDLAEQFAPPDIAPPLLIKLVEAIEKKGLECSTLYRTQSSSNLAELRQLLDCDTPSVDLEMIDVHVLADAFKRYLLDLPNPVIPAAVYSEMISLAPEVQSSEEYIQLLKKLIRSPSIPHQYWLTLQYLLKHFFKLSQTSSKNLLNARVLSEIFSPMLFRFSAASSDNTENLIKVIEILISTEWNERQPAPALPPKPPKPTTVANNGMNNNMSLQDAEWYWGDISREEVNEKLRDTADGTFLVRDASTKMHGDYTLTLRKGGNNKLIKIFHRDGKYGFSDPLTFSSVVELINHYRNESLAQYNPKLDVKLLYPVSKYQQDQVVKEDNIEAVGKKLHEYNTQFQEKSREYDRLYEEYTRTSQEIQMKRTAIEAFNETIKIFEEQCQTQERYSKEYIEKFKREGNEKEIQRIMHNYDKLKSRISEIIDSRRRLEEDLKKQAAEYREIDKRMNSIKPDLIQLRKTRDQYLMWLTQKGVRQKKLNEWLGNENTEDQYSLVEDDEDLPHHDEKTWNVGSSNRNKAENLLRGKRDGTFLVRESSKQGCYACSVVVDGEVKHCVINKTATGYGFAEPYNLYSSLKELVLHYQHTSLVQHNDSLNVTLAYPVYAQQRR

Chain of PI3Kdelta (O00329 whole entry, canonical isoform): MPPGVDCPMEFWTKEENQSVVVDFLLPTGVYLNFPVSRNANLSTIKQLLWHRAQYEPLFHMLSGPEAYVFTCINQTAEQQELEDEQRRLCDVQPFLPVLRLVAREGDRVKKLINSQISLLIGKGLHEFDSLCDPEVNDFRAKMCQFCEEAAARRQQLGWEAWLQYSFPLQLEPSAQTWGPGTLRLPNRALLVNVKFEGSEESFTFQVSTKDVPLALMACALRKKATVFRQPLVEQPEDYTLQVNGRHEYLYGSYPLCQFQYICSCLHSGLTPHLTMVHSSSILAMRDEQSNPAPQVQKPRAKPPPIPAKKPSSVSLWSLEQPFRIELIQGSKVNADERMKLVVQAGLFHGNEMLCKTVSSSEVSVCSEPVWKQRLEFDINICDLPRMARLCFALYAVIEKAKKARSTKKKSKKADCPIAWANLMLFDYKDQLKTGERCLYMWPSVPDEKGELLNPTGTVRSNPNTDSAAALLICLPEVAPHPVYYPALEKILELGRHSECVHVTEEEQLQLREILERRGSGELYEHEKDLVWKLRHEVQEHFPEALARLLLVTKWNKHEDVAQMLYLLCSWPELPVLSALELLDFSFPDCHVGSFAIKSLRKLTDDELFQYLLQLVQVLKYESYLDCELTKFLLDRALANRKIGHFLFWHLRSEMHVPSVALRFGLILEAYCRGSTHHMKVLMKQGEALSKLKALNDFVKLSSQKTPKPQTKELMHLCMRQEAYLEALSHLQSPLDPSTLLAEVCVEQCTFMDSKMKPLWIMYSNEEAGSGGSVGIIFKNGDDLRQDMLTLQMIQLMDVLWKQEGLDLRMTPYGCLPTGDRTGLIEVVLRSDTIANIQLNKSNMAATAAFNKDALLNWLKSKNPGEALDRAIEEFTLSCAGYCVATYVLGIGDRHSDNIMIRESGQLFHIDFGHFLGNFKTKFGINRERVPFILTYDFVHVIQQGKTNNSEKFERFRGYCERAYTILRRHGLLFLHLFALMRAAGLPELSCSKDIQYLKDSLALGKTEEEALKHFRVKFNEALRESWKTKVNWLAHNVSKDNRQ
Chain of PI3Kdelta (P27986 whole entry partner, canonical isoform): as the sequence (P27986 whole entry partner, canonical isoform) above

Compound	IC50 (PI3Kdelta) [nM]	Relative Selectivity versus PI3Kalpha (PI3Kalpha)
CCn1c(-c2cnc(C)nc2)nc2c(-c3ccc4c(c3)C(C)(NCC(C)(C)C#N)C(=O)N4)ncnc21 (single isomer, unassigned) [Compound 2-39, (R or S)-3-((5-(9-ethyl-8-(2-methylpyrimidin-5-yl)-9H-purin-6-yl)-3-methyl-2-oxoindolin-3-yl)amino)-2,2-dimethylpropanenitrile]	3	>10
CCn1c(-c2cnc(C)nc2)nc2c(-c3cnc4c(c3)C(C)(CC3CC3)C(=O)N4)ncnc21 (single isomer, unassigned) [Compound 1-15, (R or S)-3-(cyclopropylmethyl)-5-(9-ethyl-8-(2-methylpyrimidin-5-yl)-9H-purin-6-yl)-3-methyl-1,3-dihydro-2H-pyrrolo[2,3-b]pyridin-2-one]	224	>10
CCn1c(-c2cnc(C)nc2)nc2c(-c3ccc4c(c3)C(C)(CC(C)C)NS4(=O)=O)ncnc21 (single isomer, unassigned) [Compound 4-6, (R or S)-9-ethyl-6-[3-methyl-3-(2-methylpropyl)-1,1-dioxido-2,3-dihydro-1,2-benzisothiazol-5-yl]-8-(2-methylpyrimidin-5-yl)-9H-purine]	55	>10
CCn1c(-c2cnc(C)nc2)nc2c(-c3cnc4c(c3)C(C)(N3CC(C)(C#N)C3)C(=O)N4)ncnc21 (single isomer, unassigned) [Compound 2-53, (S or R)-1-(5-(9-ethyl-8-(2-methylpyrimidin-5-yl)-9H-purin-6-yl)-3-methyl-2-oxo-2,3-dihydro-1H-pyrrolo[2,3-b]pyridin-3-yl)-3-methylazetidine-3-carbonitrile]	4	>10
CCN1CCCC12C(=O)Nc1ccc(-c3ncnc4c3nc(-c3cnc(C)nc3)n4C)cc12 (single isomer, unassigned) [Compound 3-28, (R or S)-1′-ethyl-5-(9-methyl-8-(2-methylpyrimidin-5-yl)-9H-purin-6-yl)spiro[indoline-3,2′-pyrrolidin]-2-one]	99	>10
CCn1c(-c2cnc(C)nc2)nc2c(-c3ccc4c(c3)C(C)(N3CC(OC)C3)C(=O)N4)ncnc21 (single isomer, unassigned) [Compound 2-79, (R or S)-5-(9-ethyl-8-(2-methylpyrimidin-5-yl)-9H-purin-6-yl)-3-(3-methoxyazetidin-1-yl)-3-methylindolin-2-one]	15	>10
CCn1c(-c2cnc(C)nc2)nc2c(-c3ccc4c(c3)C(C)(NCC3(F)COC3)C(=O)N4)ncnc21 (single isomer, unassigned) [Compound 2-71, (R or S)-5-(9-ethyl-8-(2-methylpyrimidin-5-yl)-9H-purin-6-yl)-3-(((3-fluorooxetan-3-yl)methyl)amino)-3-methylindolin-2-one]	219	>10
CCn1c(-c2cnc(C)nc2)nc2c(-c3ccc4oc(=O)n(C5CCOCC5)c4c3)ncnc21 [Compound 5-9, 5-(9-ethyl-8-(2-methylpyrimidin-5-yl)-9H-purin-6-yl)-3-(tetrahydro-2H-pyran-4-yl)benzo[d]oxazol-2(3H)-one]	151	>10
CCn1c(-c2cnc(C)nc2)nc2c(-c3ccc4c(c3)C(C)(CC(C)(C)O)C(=O)N4)ncnc21 (single isomer, unassigned) [Compound 1-40, 5-(9-Ethyl-8-(2-methylpyrimidin-5-yl)-9H-purin-6-yl)-3-(2-hydroxy-2-methylpropyl)-3-methylindolin-2-one]	142	>10
CCn1c(-c2cnc(C)nc2)nc2c(-c3ccc4c(c3)C(C)(N3C[C@@H](C)O[C@@H](C)C3)C(=O)N4)ncnc21 (single isomer, unassigned) [Compound 2-3, (R or S)-3-[(cis)-2,6-dimethylmorpholin-4-yl]-5-[9-ethyl-8-(2-methylpyrimidin-5-yl)-9H-purin-6-yl]-3-methyl-1,3-dihydro-2H-indol-2-one]	145	4
Cc1ncc(-c2nc3c(-c4ccc5c(c4)C(C)(NCC(C)(F)F)C(=O)N5)ncnc3n2C)cn1 (single isomer, unassigned) [Compound 2-70, (R or S)-3-((2,2-difluoropropyl)amino)-3-methyl-5-(9-methyl-8-(2-methylpyrimidin-5-yl)-9H-purin-6-yl)indolin-2-one]	4	>10
CCn1c(-c2cnc(C)nc2)nc2c(-c3ccc4c(c3)C3(CCCN3)C(=O)N4)ncnc21 (single isomer, unassigned) [Compound 3-33, (R or S)-5-(9-ethyl-8-(2-methylpyrimidin-5-yl)-9H-purin-6-yl)spiro[indoline-3,2′-pyrrolidin]-2-one]	67	>10

Further molecules by falling IC50 (PI3Kdelta), results first:

IC50 (PI3Kdelta) [nM]	Relative Selectivity versus PI3Kalpha (PI3Kalpha)	Compound
658	>10	CCn1c(C(F)F)nc2c(-c3ccc4c(c3)C(C)(Cc3ccccc3)C(=O)N4)ncnc21 (single isomer, unassigned) [Compound 1-24, (R or S)-benzyl-5-(8-(difluoromethyl)-9-ethyl-9H-purin-6-yl)-3-methylindolin-2-one]
42	>10	CCn1c(-c2cnc(C)nc2)nc2c(-c3ccc4oc(=O)n(C(C)C5CC5)c4c3)ncnc21 (single isomer, unassigned) [Compound 5-5, (R or S)-3-(1-cyclopropylethyl)-5-[9-ethyl-8-(2-methylpyrimidin-5-yl)-9H-purin-6-yl]-1,3-benzoxazol-2(3H)-one]
21	>10	CCn1c(-c2cnc(C)nc2)nc2c(-c3ccc4c(c3)C(C)(N[C@H]3C[C@H](OC)C3)C(=O)N4)ncnc21 (single isomer, unassigned) [Compound 2-83, 5-(9-ethyl-8-(2-methylpyrimidin-5-yl)-9H-purin-6-yl)-3-(((1R,3R)-3-methoxycyclobutyl)amino)-3(R or S)-methylindolin-2-one]
16	>10	CCn1c(-c2cnc(C)nc2)nc2c(-c3cnc4c(c3)C(C)(CC3CC3)C(=O)N4)ncnc21 (single isomer, unassigned) [Compound 1-14, (R or S)-3-(cyclopropylmethyl)-5-(9-ethyl-S-(2-methylpyrimidin-5-yl)-9H-purin-6-yl)-3-methyl-1,3-dihydro-2H-pyrrolo[2,3-b]pyridin-2-one]
7	>10	CCn1c(-c2cnc(C)nc2)nc2c(-c3ccc4c(c3)C(C)(N3CCOCC35CCC5)C(=O)N4)ncnc21 (racemic) [Compound 2-23, (R and S)-5-[9-ethyl-8-(2-methylpyrimidin-5-yl)-9H-purin-6-yl]-3-methyl-3-(8-oxa-5-azaspiro[3.5]non-5-yl)-1,3-dihydro-2H-indol-2-one]
6	>10	CCn1c(-c2cnc(C)nc2)nc2c(-c3ccc4c(c3)C(C)(N3CC(C)(F)C3)C(=O)N4)ncnc21 (single isomer, unassigned) [Compound 2-64, (R or S)-5-(9-ethyl-8-(2-methylpyrimidin-5-yl)-9H-purin-6-yl)-3-(3-fluoro-3-methylazetidin-1-yl)-3-methylindolin-2-one]
3	>10	CCn1c(-c2cnc(C)nc2)nc2c(-c3ccc4[nH]c(=O)n(C(C)C5CC5)c4c3)ncnc21 (single isomer, unassigned) [Compound 5-7, (R or S)-1-(1-cyclopropylethyl)-6-[9-ethyl-8-(2-methylpyrimidin-5-yl)-9H-purin-6-yl]-1,3-dihydro-2H-benzimidazol-2-one]
3	>10	CCn1c(-c2cnc(C)nc2)nc2c(-c3ccc4c(c3)C3(CCCN3C(=O)C3CC3)C(=O)N4C(C)C)ncnc21 (single isomer, unassigned) [Compound 3-10, (R or S)-1′-(cyclopropanecarbonyl)-5-(9-ethyl-8-(2-methylpyrimidin-5-yl)-9H-purin-6-yl)-1-isopropylspiro[indoline-3,2′-pyrrolidin]-2-one]
